Experimental data: patent US11541050B2, “Pyrimidine derivatives for the treatment of viral infections” (JANSSEN SCIENCES IRELAND UC, priority 2011, dated 2023)

What was measured:
[1] = test system: HCV replicon in Huh-7 luc/neo cells; assay: Suppression of HCV replicon replication by conditioned media from compound-treated PBMC; format: cell-based, HCV type 1 b; settings: Hepatitis C virus; conditioned media from compound-treated PBMC on Huh-7 luc/neo replicon cells (compounds 74 onward); read-out: PBMC HUH-7 EC50
Description: Activation of human TLR7 results in robust production of interferon by plasmacytoid dendritic cells present in human blood. The potential of compounds to induce interferon was evaluated by looking at the antiviral activity in the HCV replicon system upon incubation with conditioned media from peripheral blood mononuclear cells (PBMC). […] The assay utilized the stably transfected cell line Huh-7 luc/neo harboring an RNA encoding a bicistronic expression construct comprising the wild type NS3-NS5B regions of HCV type 1 b translated from an Internal Ribosome Entry Site (IRES) from encephalomyocarditis virus (EMCV), preceded by a reporter gene (Firefly-luciferase) and a selectable marker gene (neoR, neomycine phosphotransferase). The construct is flanked by 5′ and 3′ NTRs (non-translated regions) from HCV type 1 b. Continued culture of the replicon cells in the presence of G418 (neoR) is dependent on the replication of the HCV RNA. The stably transfected replicon cells that replicate HCV RNA autonomously and to high levels, encoding inter alia luciferase, were used for profiling of the conditioned cell culture media.
Briefly, PBMCs were prepared from buffy coats of at least two donors using a standard Ficoll centrifugation protocol. Isolated PBMCs were resuspended in RPMI medium supplemented with 10% human AB serum and 2×10^5 cells/well were dispensed into 384-well plates containing compounds (70 μL total volume). After overnight incubation, 10 μL of supernatant was transferred to 384-well plates containing 2.2×10^3 replicon cells/well in 30 μL (plated the day before). Following 24 hours of incubation, replication was measured by assaying luciferase activity using 40 μL/well Steady Lite Plus substrate (Perkin Elmer) and measured with ViewLux ultraHTS microplate imager (Perkin Elmer). […] Recombinant interferon α-2a (Roferon-A) was used as a standard control compound.

[2] = target: T1, human TLR8 (wild type sequence) (Homo sapiens, UniProt Q9NR97); assay: TLR8 cellular NFκB-luc reporter assay, wild type TLR8; format: cell-based; set-up: unit not given here; settings: lowest effective concentration, wild type TLR8 (compounds 74 onward)
T1 construct: expressed in transfected cells; host or cells: HEK293
T1 sequence (Q9NR97 27-1041): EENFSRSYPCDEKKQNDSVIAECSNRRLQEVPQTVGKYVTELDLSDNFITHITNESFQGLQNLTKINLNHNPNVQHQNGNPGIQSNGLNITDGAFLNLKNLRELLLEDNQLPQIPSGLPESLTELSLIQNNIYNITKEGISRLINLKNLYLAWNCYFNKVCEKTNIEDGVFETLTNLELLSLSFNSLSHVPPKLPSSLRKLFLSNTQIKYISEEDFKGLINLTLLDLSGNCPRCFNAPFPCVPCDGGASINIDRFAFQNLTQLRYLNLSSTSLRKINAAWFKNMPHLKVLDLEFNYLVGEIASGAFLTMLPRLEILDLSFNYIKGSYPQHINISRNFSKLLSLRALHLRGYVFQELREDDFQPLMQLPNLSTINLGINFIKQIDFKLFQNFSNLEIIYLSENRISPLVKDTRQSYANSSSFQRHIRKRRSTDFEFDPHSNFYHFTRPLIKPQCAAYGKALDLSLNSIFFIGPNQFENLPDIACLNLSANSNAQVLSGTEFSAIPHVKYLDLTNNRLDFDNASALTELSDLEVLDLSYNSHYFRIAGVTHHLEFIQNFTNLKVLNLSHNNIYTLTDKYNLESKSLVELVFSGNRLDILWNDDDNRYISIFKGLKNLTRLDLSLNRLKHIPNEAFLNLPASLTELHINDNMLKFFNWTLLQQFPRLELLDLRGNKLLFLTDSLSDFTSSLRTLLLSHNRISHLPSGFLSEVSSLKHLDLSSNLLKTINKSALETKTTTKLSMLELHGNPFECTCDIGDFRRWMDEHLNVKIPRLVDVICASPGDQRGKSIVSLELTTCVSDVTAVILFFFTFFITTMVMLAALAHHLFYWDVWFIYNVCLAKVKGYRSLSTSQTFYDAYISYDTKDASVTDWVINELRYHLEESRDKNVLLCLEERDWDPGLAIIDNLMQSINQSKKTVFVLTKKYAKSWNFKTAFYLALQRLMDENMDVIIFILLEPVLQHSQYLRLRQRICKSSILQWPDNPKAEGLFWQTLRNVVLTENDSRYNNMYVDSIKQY
Procedure, shortened: (§1)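 HEK293, transient transfection 48 h (CMV-TLR7/8 WT or 2nd-LRR deletion + NFκB-luc); compound 6 h, 37 °C, 5% CO2; Steady Lite luciferase; quadruplicate dose-response; LEC = conc. ≥2× above assay SD.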

[3] = target: T2, human TLR7 (wild type sequence) (Homo sapiens, UniProt Q9NYK1); assay: TLR7 cellular NFκB-luc reporter assay, wild type TLR7; format: cell-based; set-up: unit not given here; settings: lowest effective concentration, wild type TLR7 (compounds 74 onward)
T2 construct: expressed in transfected cells; host or cells: HEK293
T2 sequence (Q9NYK1 27-1049): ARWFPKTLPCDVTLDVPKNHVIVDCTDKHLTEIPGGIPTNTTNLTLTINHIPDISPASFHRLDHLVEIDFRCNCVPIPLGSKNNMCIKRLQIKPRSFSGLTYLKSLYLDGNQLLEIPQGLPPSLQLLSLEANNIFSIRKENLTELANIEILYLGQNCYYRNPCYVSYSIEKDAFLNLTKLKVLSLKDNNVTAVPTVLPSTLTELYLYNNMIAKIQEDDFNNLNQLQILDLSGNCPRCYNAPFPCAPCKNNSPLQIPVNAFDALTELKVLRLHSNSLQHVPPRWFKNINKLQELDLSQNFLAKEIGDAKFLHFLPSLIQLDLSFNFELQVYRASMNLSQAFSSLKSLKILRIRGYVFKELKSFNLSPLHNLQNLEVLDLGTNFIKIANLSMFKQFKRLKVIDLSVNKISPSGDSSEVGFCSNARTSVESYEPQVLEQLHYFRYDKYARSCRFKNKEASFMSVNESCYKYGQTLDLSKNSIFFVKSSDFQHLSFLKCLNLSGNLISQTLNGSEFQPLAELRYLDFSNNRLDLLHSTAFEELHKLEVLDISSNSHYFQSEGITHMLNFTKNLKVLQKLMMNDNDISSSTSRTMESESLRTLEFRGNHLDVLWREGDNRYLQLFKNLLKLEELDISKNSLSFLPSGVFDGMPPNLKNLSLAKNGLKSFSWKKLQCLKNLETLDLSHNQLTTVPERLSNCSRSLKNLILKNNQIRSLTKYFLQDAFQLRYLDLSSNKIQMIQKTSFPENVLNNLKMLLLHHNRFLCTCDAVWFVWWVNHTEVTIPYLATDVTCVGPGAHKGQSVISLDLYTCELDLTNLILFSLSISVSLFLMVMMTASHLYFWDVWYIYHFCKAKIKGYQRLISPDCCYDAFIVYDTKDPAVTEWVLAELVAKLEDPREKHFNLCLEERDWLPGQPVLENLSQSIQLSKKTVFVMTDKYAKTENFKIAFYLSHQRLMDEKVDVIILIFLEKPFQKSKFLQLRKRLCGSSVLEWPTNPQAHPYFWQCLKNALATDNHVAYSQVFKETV
Procedure, shortened: as §1

Row | SMILES | EC50 [1] [nM] | TLR 8 wt LEC [2] | TLR 7 wt LEC [3]
1 | CCCCNc1nc(N)ncc1OCC(C)(O)CC (stereo not drawn) [Compound 104] | > 23800 | 12.390 | >25
2 | CCCCNc1nc(N)ncc1OCCOc1cc(OC)c(OC)c(OC)c1 [Compound 133] | 585 | 3.090 | 1.500
3 | CCCCNc1nc(N)ncc1OCc1cccc(CC(=O)OC)c1 [Compound 137] | 22800 | 1.760 | 0.757
4 | CCCCNc1nc(N)ncc1OCc1nn(C)c(C)c1N [Compound 85] | 209 | 2.960 | 0.509
5 | CCCCNc1nc(N)ncc1OCCOc1ccccc1C(F)(F)F [Compound 131] | 806 | >25 | 1.700
6 | CC[C@H](C)[C@@H](CO)Nc1nc(N)ncc1OCCCc1ccccc1 [Compound 115] | 3730 | 6.510 | 6.180
7 | CCCCNc1nc(N)ncc1OCc1cc2c(cn1)[nH]c1ccccc12 [Compound 159] | 18 | 1.080 | 0.159
8 | CCCCNc1nc(N)ncc1OCc1cc(OC)ccn1 [Compound 171] | 158 | 1.060 | 0.396
9 | CCCCNc1nc(N)ncc1OCCCCc1ccccc1 [Compound 110] | 740 | 3.780 | 2.380
10 | CCCC(C)Nc1nc(N)ncc1OCCCc1ccccc1 (stereo not drawn) [Compound 112] | 3350 | 5.560 | 3.960
11 | CCCCNc1nc(N)ncc1OCCOc1cccnc1 [Compound 143] | 443 | 0.880 | 1.810
12 | CCC[C@@H](CO)Nc1nc(N)ncc1OCc1nccc2ccccc12 [Compound 195] | 3 | 0.056 | 0.003
13 | CCCC[C@@H](CO)Nc1nc(N)ncc1OCc1ncc(C)c(OC)c1C [Compound 194] | 19 | 0.164 | 0.031
14 | CCCC[C@H](CCO)Nc1nc(N)ncc1OCc1ccccc1 [Compound 145] | 632 | 1.920 | 2.140
15 | CCCCNc1nc(N)ncc1OCC(C)(C)O [Compound 105] | 19000 | 22.020 | >25
16 | CCCC(C)Nc1nc(N)nc(C)c1OCc1ccccc1 (stereo not drawn) [Compound 168] | 11700 | 14.900 | >25
17 | CCCCNc1nc(N)ncc1OCc1noc(-c2ccccc2)n1 [Compound 156] | 697 | 2.060 | 0.828
18 | CCCCNc1nc(N)ncc1OCCCc1cc(OC)c(OC)c(OC)c1 [Compound 160] | 634 | 2.710 | 0.756
19 | CCCCNc1nc(N)ncc1OCc1cccc(C(N)=O)n1 [Compound 176] | 173 | 0.463 | 0.868
20 | CCCCNc1nc(N)ncc1OCc1cc(OC2CCOC2)c(OC)cn1 (stereo not drawn) [Compound 174] | 52 | 2.610 | 0.447
21 | CCCCNc1nc(N)ncc1OCc1cc(C(=O)OCC)ccn1 [Compound 170] | 2630 | 1.750 | 0.319
22 | CCCCNc1nc(N)ncc1OCCOc1ccnc2ccsc12 [Compound 136] | 275 | 2.030 | 2.000
23 | CCCCNc1nc(N)ncc1OCCOc1cc(OC)cc(OC)c1 [Compound 129] | 432 | 3.250 | 2.090
24 | CCCCNc1nc(N)ncc1OCCCc1ccc2c(c1)OCO2 [Compound 151] | 188 | 1.860 | 0.431
25 | CCCCNc1nc(N)ncc1OCc1cccc2c1OCCCO2 [Compound 138] | 570 | 1.050 | 1.040
26 | CCCCNc1nc(N)ncc1OCCCc1cccc(OC)c1 [Compound 146] | 707 | 2.300 | 1.230
